Earlier results on 1 substance are cited in patent US4127531A, “Novel hexapeptides, intermediates therefor, and compositions and methods employing said hexapeptides” (priority 1977, dated 1978).

One data set relates to rat. As to conditions: injected directly into the brain of the rat.
In data set [1] the test system is partially purified brain opiate receptor sites.

With “H-Tyr-Gly-Gly-Phe-Met-OH [methionine enkephalin]”, the analgesic activity entry in the data set on rat is “only weak analgesic agent of short duration”. For the same substance, in data set [1], the “binding to partially purified brain opiate receptor sites” value is “binds stereo-specifically”.
